Active and inactive are the calls of the source.
What was measured:
[1] = inhibitors of non-replicating M. tuberculosis, dose response, luciferase, dry powder (AID 651619); assay type: functional; conditions: Mycobacterium tuberculosis
[2] = inhibitors of non-replicating M. tuberculosis, dose response, luciferase, dry powder (AID 651620); assay type: functional; conditions: Mycobacterium tuberculosis
[3] = growth inhibition of replicating M. tuberculosis, dose response, counter-screen, dry powder, IC90 (AID 651617); assay type: functional; conditions: Mycobacterium tuberculosis
[4] = target: Metabotropic glutamate receptor 3 (Rattus norvegicus, UniProt P31422); experiment: inhibition of rat mGlu3 glutamate signaling – HEK/GIRK cells, thallium flux, dose response (AID 651839); assay type: functional
[5] = target: Albumin (Bos taurus, UniProt P02769); experiment: Counterscreen for inhibitors of T-cell receptor (TCR)-CD3 interaction: Fluorescence-based biochemical high throughput dose response assay to identify inhibitors of T-cell receptor (TCR)-CD3 interaction using a TAMRA-labeled BSA probe.; assay type: functional
[6] = target: Mu-type opioid receptor (Homo sapiens, UniProt P35372); experiment: Late-stage results from the probe development effort to identify antagonists of OPRK1: luminescence-based cell-based dose response OPRM1 counterscreen.; assay type: functional
[7] = target: Delta-type opioid receptor (Homo sapiens, UniProt P41143); experiment: Late-stage results from the probe development effort to identify antagonists of OPRK1: fluorescence-based cell-based dose response OPRD1 counterscreen.; assay type: functional
[8] = IC50 of insulin release inhibition, rat insulinoma INS-1E line, 5 mM glucose, cell-based (AID 1117331); assay type: functional
[9] = cells; conditions: HEK293
[10] = viability loss in HepG2 liver cells – cell-based, ATP luminescence, cherry-pick, set 6, cytotoxicity control, dose response (AID 1053125); assay type: functional
[11] = target: Disintegrin and metalloproteinase domain-containing protein 17 (Homo sapiens, UniProt P78536); experiment: inhibition of ADAM17 substrate cleavage – biochemical, quenched FRET substrate, counter-screen for ADAM10 exosite inhibitor project, dose response (AID 743253)
[12] = potency of ADAM10 substrate cleavage blockers – biochemical, QFRET, dose response (AID 743254);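 note: ADAM10 enzyme with the DM2 quenched FRET peptide as substrate; EDANS fluorescence gain as the protease cuts the substrate; inhibitor potency against ADAM10 proteolytic activity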
[13] = cytotoxicity in MITF-independent A375 cells – cell-based, CellTiter-Glo luminescence, dry powder, set 4, counter-screen for MITF inhibitor project, dose response (AID 624364); assay type: functional; conditions: A-375;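 note: A375 melanoma cells are MITF independent so this is a counter screen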
[14] = viability loss in MITF-independent A375 cells – cell-based, CellTiter-Glo luminescence, dry powder, set 2, counter-screen for MITF inhibitor project, dose response (AID 624489); assay type: functional; conditions: A-375;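 note: actives are compounds lowering A375 viability meaning general cytotoxicity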
[15] = loss of viability in HeLa cells – cell-based, ATP luminescence, dry powder, cytotoxicity control, dose response (AID 652117); assay type: functional
[16] = target: Protein disulfide-isomerase A6 (Homo sapiens, UniProt Q15084); experiment: Secondary Assay for Selectivity of PDI Inhibitors (against ERp5) Measured in Biochemical System Using Plate Reader - 2137-04_Inhibitor_Dose_DryPowder_Activity_Set3.
[17] = target: Protein disulfide-isomerase (Homo sapiens, UniProt P07237); experiment: inhibition of PDI-mediated insulin reduction – biochemical, turbidity, dry powder samples, set 2, confirmation (AID 652146)
Chain of Protein disulfide-isomerase (P07237 whole entry): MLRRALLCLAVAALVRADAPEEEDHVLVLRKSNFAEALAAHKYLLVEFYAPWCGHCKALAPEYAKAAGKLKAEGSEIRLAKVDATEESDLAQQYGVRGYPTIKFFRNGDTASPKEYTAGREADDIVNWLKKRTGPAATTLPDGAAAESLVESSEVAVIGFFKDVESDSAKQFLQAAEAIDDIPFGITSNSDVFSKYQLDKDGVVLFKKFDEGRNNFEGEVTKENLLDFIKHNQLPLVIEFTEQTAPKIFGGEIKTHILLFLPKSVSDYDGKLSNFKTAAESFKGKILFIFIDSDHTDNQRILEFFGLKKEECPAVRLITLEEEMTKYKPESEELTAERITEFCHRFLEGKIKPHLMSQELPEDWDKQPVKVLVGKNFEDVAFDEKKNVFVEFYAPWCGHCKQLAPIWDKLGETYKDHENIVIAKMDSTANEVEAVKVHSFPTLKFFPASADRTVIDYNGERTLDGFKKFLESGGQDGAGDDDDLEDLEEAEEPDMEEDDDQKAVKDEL

Chain of Mu-type opioid receptor (P35372 whole entry): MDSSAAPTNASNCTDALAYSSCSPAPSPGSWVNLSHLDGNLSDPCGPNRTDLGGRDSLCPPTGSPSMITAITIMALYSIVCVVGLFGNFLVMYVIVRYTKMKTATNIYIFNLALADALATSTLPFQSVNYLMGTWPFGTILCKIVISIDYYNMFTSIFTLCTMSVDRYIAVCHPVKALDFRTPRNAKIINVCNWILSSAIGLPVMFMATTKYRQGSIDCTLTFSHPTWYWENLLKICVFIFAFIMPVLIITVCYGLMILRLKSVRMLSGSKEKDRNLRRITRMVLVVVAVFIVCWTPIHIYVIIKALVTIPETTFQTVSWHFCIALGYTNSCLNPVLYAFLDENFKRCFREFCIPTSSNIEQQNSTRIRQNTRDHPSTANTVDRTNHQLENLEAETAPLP
Chain of Metabotropic glutamate receptor 3 (P31422 whole entry): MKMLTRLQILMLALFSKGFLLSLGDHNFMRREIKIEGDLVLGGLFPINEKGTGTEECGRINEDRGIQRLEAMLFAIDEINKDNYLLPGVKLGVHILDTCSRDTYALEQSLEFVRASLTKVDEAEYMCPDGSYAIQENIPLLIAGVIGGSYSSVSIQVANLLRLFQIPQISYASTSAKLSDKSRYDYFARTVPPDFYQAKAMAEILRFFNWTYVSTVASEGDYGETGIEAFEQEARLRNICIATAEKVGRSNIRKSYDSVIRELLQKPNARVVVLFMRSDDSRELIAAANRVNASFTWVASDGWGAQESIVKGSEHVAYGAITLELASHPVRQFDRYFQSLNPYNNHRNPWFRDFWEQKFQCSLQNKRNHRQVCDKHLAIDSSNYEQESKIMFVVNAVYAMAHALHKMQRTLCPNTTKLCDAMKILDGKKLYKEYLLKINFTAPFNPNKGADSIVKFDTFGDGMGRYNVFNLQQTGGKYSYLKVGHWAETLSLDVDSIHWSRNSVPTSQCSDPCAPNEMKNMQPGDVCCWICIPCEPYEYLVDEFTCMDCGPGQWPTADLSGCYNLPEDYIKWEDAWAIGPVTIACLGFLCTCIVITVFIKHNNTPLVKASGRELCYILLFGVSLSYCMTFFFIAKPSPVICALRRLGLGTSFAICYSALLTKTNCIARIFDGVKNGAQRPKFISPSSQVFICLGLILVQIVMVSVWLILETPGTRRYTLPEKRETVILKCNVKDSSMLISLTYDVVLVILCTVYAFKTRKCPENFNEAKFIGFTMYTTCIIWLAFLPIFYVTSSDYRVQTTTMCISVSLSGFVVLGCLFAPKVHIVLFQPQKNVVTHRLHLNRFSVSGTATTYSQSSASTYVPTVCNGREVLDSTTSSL
Chain of Albumin (P02769 whole entry): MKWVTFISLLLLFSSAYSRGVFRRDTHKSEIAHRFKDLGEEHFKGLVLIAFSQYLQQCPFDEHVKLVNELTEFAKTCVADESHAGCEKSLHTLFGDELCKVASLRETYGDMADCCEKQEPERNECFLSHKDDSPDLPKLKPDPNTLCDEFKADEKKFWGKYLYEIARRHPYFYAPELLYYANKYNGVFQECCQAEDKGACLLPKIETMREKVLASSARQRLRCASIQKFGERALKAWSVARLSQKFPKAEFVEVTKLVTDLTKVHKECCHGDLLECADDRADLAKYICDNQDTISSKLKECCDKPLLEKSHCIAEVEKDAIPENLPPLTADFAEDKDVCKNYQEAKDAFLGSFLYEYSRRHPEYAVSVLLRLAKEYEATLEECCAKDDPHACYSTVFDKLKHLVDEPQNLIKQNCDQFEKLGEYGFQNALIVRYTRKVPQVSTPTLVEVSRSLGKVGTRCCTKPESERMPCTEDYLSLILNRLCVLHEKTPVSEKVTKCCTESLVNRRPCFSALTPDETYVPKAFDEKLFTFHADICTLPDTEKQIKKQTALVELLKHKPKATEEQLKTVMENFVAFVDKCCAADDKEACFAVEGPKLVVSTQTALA
Chain of Disintegrin and metalloproteinase domain-containing protein 17 (P78536 whole entry, the tested form may be a part): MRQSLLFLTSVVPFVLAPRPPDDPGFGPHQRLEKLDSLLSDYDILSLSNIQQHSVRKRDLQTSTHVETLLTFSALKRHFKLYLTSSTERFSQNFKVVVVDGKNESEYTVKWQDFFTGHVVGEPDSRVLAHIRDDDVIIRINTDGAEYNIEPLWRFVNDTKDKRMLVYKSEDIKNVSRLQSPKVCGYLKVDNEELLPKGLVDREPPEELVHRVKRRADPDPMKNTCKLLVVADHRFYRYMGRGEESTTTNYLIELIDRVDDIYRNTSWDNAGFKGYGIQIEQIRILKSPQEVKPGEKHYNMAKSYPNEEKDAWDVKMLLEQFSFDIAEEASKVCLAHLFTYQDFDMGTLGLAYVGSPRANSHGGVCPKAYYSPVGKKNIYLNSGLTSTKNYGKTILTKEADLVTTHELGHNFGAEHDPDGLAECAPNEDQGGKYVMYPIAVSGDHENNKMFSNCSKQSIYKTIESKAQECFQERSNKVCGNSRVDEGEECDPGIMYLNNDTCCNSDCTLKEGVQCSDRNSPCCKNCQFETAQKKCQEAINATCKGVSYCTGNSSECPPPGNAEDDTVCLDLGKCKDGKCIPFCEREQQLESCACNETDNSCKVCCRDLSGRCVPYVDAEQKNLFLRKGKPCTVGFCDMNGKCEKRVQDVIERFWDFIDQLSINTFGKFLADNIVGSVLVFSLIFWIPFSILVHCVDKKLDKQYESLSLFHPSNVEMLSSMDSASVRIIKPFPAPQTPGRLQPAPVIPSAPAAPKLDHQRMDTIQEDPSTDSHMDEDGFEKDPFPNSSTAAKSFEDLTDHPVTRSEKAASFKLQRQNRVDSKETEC
Chain of Protein disulfide-isomerase A6 (Q15084 whole entry): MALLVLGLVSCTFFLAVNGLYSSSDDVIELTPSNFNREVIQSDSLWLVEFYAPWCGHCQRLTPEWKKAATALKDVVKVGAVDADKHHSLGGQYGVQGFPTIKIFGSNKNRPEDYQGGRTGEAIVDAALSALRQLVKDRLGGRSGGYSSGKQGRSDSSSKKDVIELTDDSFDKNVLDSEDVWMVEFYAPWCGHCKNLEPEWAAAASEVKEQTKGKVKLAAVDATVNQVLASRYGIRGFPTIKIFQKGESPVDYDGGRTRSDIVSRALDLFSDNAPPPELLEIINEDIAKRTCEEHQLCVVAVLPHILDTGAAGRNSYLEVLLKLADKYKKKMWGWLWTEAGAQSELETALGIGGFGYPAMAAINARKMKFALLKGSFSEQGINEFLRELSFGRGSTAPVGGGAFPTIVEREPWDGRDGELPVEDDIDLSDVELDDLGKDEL
Chain of Delta-type opioid receptor (P41143 whole entry): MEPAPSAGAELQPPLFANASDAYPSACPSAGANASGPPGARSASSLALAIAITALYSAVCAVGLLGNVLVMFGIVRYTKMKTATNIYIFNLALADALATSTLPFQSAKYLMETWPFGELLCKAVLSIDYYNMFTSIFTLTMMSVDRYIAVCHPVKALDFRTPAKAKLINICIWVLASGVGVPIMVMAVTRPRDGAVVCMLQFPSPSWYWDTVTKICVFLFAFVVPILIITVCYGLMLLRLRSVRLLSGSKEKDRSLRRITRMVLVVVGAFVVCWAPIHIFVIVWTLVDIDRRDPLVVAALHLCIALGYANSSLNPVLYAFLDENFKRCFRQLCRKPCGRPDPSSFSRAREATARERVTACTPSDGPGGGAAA

For c1ccc(-c2nnc(SCc3ccccn3)o2)cc1, the IC90 [1] was 4 µM (active), the IC90 [2] was 4 µM (active) and the IC90 [3] was 16 µM (active).
For COc1ccc(C#Cc2ccc(C(=O)N3CC[C@@H](O)C3)cc2)cc1, the IC50 [4] was 6.34 µM (active).
In the case of CN=C(S)NNC(=O)c1cccn(Cc2cccc(C(F)(F)F)c2)c1=O, the IC50 [5] was > 94.1 µM (inactive).
For COC(=O)c1cc(Cl)cnc1N1CCC(NC2CCCCC2)CC1, the IC50 [6] was 2 µM (active) and the IC50 [7] was 39 µM (inactive).
For Cc1ccc(O)c([C@H](CCN(C(C)C)C(C)C)c2ccccc2)c1 [TOLTERODINE], the IC50 [8] was > 33.3 µM (inactive).
With CC/C(C)=N\Nc1nc(-c2cc3cc(OC)ccc3oc2=O)cs1 the AC50 [9] was > 52 µM (inactive) and the AC50 [10] was > 52 µM (inactive).
With O=C1NCN(c2ccccc2)C12CCN(C(c1cccc3ccccc13)c1nnnn1Cc1ccccc1)CC2 (configuration not stated) the IC50 [11] was > 69.5 µM (inactive) and the IC50 [12] was > 69.5 µM (inactive).
For O=C1C(NS(=O)(=O)c2ccc(Br)cc2)=C(c2ccc(OC(F)(F)F)cc2)C(=O)c2ccccc21, the AC50 [13] was > 70 µM (inactive) and the AC50 [14] was > 70 µM (inactive).
With CC(C)(C)OC(=O)C1(CCOc2ccccc2)CCN(Cc2ccc(O)c(Cl)c2)CC1 the AC50 [15] was 34 µM (active), the AC50 [16] was 30 µM (inactive) and the AC50 [17] was 0.6 µM (active).

Reference: ChEMBL document CHEMBL1201862, “PubChem BioAssay data set” (2004)
